In the METLIN SMRT retention time set (Domingo-Almenara et al. 2019) one finds RP-LC retention time data, which are given here for 60 compounds.

This data set is described as follows: gradient 5% acetonitrile 3 min, to 50% in 2 min, to 85% in 15 min, held 3 min, 100 µL/min. To be noted: column: Zorbax Extend-C18 2.1 x 50 mm; eluents: water / acetonitrile, 0.1% formic acid. The gist of the method: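 Retention times come from adduct peaks that were picked computationally and then checked by hand. The standards, pure and pooled in mixtures of ~100 molecules, were run on a Zorbax Extend-C18 column (2.1 × 50 mm, 1.8 μm) at 100 μL/min with water and acetonitrile, each with 0.1% formic acid. Detection was by quadrupole time-of-flight mass spectrometry in positive and negative ionization mode, with a dead volume of 40 μL and a dwell volume of 900 μL.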
With `Cc1ccc(-c2cn3cc(C(=O)NC(C)(C)C)ccc3n2)cc1`, the RP-LC retention time was determined as 692 s. `COC1CCC12CCN(Cc1cccc(F)c1)CC2` (stereo not given) showed an RP-LC retention time of 637 s. Compound `CCn1cccc1-c1nc(C)c(C(=O)NCCc2ccc(OC)c(OC)c2)s1` displayed an RP-LC retention time of 998 s.

In turn, `Cc1ccc(NS(=O)(=O)c2cc(-c3[nH]ncc3C(=O)N3CCCC3)oc2C)c(C)c1` displayed an RP-LC retention time of 746 s. `O=c1c2ccccc2c(-c2nc(-c3cccnc3)no2)cn1-c1ccccc1` displayed an RP-LC retention time of 1010 s. The result for `CCCCn1cc(S(=O)(=O)Nc2ccc(OC)cc2)c2cccnc21` reads 896 s. The result for `COc1cccc(-c2ccc3nc(N4CCC(C(=O)N5CCCC5)CC4)sc3n2)c1` reads 912 s; that for `CC(CNC(=O)C1CCN(S(=O)(=O)c2ccc3c(c2)NC(=O)CO3)CC1)c1ccccc1` (stereo not given), 792 s; that for `Cc1ccc(S(=O)(=O)N2CCC(CCC(=O)NCc3cccc(C)c3)CC2)cc1`, 956 s. The result for `COc1cc2c(cc1OC)C(C(=O)NCC1COc3ccccc3O1)C(c1cccs1)N(C)C2=O` (stereo not given) reads 842 s. `O=C(Nc1ccccc1F)C1CC(=O)N(CCc2c[nH]c3ccc(F)cc23)C1` (stereo not given) came in with an RP-LC retention time of 790 s. The result for `O=C(NCc1ccccc1)C1CCCN(S(=O)(=O)c2cc(-c3noc(C4CCC4)n3)cs2)C1` (stereo not given) reads 1080 s. `Cc1oc(-c2[nH]ncc2C(=O)N2CCCC2)cc1S(=O)(=O)N1CCC(C)CC1` showed an RP-LC retention time of 746 s.

`CCn1cnc2ccc(-c3noc(-c4ccc(OC)cc4)n3)cc21` gave an RP-LC retention time of 753 s.

Consider `COc1cccc(C(=O)N2CCC3(CC2)NC(=O)c2ccc(F)cc2N3C)c1`, for which the RP-LC retention time is 752 s.

Turning to `Cn1nc(-c2nnc(-c3ccccc3Cl)o2)c2c1CCN(C(=O)COc1ccc(F)cc1)C2`, the RP-LC retention time amounted to 891 s. With `Cc1ccc(-c2cnc(N3CCCC(C(=O)NCCC4=CCCCC4)C3)nc2)cc1` (stereo not given) the figure was 1290 s; with `COc1ccc(OC)c(NC(=O)NC(C)C(=O)N2CCc3ccccc32)c1` (stereo not given), 859 s. With `CCN(Cc1ccccc1)C(=O)c1ncn2c1C(=O)N(CC)C(C)(C(=O)NCc1ccc(F)cc1)C2` (stereo not given) the figure was 762 s.

The compound `CCCOc1ccc(C2C(=O)N(C3CCCCC3)CC(=O)N2Cc2ccco2)cc1OC` (stereo not given) showed an RP-LC retention time of 973 s. As for `Cc1cccc(C)c1NC(=O)CN1CCCC1=O`, the RP-LC retention time was found to be 697 s. The result for `Cn1cc(C2=CCN(S(=O)(=O)c3ccc(C(C)(C)C)cc3)CC2)c2cccnc21` reads 1230 s. The result for `CCS(=O)(=O)N1CCC[C@@H]2CN3CCc4cc(OC)ccc4[C@@H]3C[C@@H]21` reads 670 s; that for `COC(=O)C1=CN(c2ccc(C)cc2C)c2ccccc2S1(=O)=O`, 869 s; that for `CSc1ccccc1CN1CCC(CNC(=O)C2(c3ccc(F)cc3)CC2)CC1`, 596 s.

For `CCNC(=O)CCc1nc2ccccc2n(CC(=O)Nc2cc(OC)cc(OC)c2)c1=O`, the RP-LC retention time came to 737 s. The result for `O=C(c1cccs1)N1CCC(c2noc(-c3cnccn3)n2)C1` (stereo not given) reads 678 s; that for `CC(=O)N1CCCc2cc(S(=O)(=O)N3CCC(C(=O)N4CCN(C)CC4)CC3)ccc21`, 624 s. The result for `COCCN(Cc1ccc(C(C)C)cc1)Cc1cc(=O)n2cc(Cl)ccc2n1` reads 628 s. The result for `COc1ccc(C(=O)c2cccc(N)c2)cc1OC` reads 630 s; that for `O=C(c1ccc(Cl)cc1)N1CCc2nc[nH]c2C1`, 568 s.

`O=C(c1ccc(F)cc1)N1CCC(C(=O)N2CCc3ccccc32)CC1` registered an RP-LC retention time of 822 s. With `CC(NC(=O)CCc1c(-c2ccc(Br)cc2)nc2ccccn12)c1ccccc1` (stereo not given) the figure was 770 s; with `O=C(Nc1cccc(OCc2nnc(-c3ccccc3)o2)c1)c1ccoc1`, 868 s; with `Cc1nn(-c2ccccc2)c(C)c1S(=O)(=O)N1CCC(C(=O)N2c3ccccc3CC2C)CC1` (stereo not given), 1060 s. With `CCOc1ccc(CNC(=O)Cc2cn(C)c3ncccc23)cc1` the figure was 698 s; with `Cc1ccccc1C(=O)NCCc1nc2cccnc2n1CC(C)C`, 717 s. The result for `Fc1cccc(-c2noc(-c3ccc(N4CCN(Cc5ccc6c(c5)OCO6)CC4)nc3)n2)c1` reads 834 s.

`c1ccc2c(N3CCNCC3)cccc2c1` yielded an RP-LC retention time of 690 s.

The compound `Cc1ccc(-n2nc3c(=O)n(CCCC(=O)NCC4CCCO4)nc(C)c3c2C)cc1` (stereo not given) came in with an RP-LC retention time of 731 s. The result for `CNC(=O)c1cccc(NC(=O)N2CCC(Oc3ccccc3Cl)CC2)c1` reads 899 s; that for `Cc1cccc(Cn2c(=O)n(CCNC(=O)C3CCCO3)c3ncccc32)c1` (stereo not given), 715 s; that for `CCOc1cccc(C(=O)Nc2nc(-c3ccc(C(C)(C)C)cc3)cs2)c1`, 1430 s. The result for `CSc1cccc(NC(=O)N2CCC[C@@H]2C(=O)NCc2csc(-c3ccccc3)n2)c1` reads 888 s. The result for `Cc1cccc(NC(=O)Nc2ccc3nnc(C)n3c2)c1` reads 747 s; that for `Cc1ncc2c(n1)C[C@@H]1CC[C@H]2N1C(=O)Nc1ccccc1F`, 638 s. On to `O=S(=O)(NCC(O)c1ccc(C(F)(F)F)cc1)c1ccc2c(c1)CCCC2` (stereo not given), for which the RP-LC retention time amounted to 984 s.

As to `COCC1(O)CCOC2(CCN(Cc3ccc(F)c(Cl)c3)CC2)C1` (stereo not given), the RP-LC retention time stood at 560 s. The result for `O=C(c1ccoc1)N1CCCC(OCc2nc(C3CC3)no2)C1` (stereo not given) reads 742 s; that for `C=CCNC(=O)NC1CCN(C2=NS(=O)(=O)C(c3ccc(C)cc3)=C2C)CC1`, 736 s; that for `COCCn1c(SCc2nc(-c3ccc4c(c3)OCO4)no2)nc2cc3c(cc2c1=O)OCO3`, 1060 s. With `Cc1ccc(Cl)cc1N1CCN(C(=O)C2CCN(S(=O)(=O)c3cn(C)cn3)CC2)CC1` the figure was 859 s. With `O=C(NCCC1=CCCCC1)c1ccc(CN2CC(=O)N3CCCCC3C2=O)cc1` (stereo not given) the figure was 680 s; with `Clc1cccc(-c2ccc(CNCCCn3ccnc3)o2)c1`, 588 s; with `Cc1cccc(N(C)S(=O)(=O)c2ccc3c(c2)CCCC(=O)N3)c1`, 813 s. The compound `CCN1C(=O)CCc2cc(NC(=O)c3cncc(Br)c3)ccc21` yielded an RP-LC retention time of 739 s.

The compound `COC(=O)c1ccc(NC(=O)C(=O)NCC2CCN(Cc3cccs3)CC2)cc1` registered an RP-LC retention time of 567 s. The result for `O=C(NCc1ccco1)N1CCCn2nc(-c3cccs3)cc2C1` reads 752 s; that for `Cc1cc(OCC(=O)N2CCC(C)CC2)nc(-c2ccc(F)cc2)n1`, 1040 s; that for `COc1ccc(-c2noc(C3CCCN3C(=O)C3CCCC3)n2)cc1` (stereo not given), 978 s.
